{
  "source": "paper PMC9317016",
  "about": "“Oleocanthal Attenuates Metastatic Castration-Resistant Prostate Cancer Progression and Recurrence by Targeting SMYD2” (Cancers, 2022)",
  "biological_target": "SMYD2 (Homo sapiens, UniProt Q9NRG4)",
  "sequence (Q9NRG4 whole entry)": "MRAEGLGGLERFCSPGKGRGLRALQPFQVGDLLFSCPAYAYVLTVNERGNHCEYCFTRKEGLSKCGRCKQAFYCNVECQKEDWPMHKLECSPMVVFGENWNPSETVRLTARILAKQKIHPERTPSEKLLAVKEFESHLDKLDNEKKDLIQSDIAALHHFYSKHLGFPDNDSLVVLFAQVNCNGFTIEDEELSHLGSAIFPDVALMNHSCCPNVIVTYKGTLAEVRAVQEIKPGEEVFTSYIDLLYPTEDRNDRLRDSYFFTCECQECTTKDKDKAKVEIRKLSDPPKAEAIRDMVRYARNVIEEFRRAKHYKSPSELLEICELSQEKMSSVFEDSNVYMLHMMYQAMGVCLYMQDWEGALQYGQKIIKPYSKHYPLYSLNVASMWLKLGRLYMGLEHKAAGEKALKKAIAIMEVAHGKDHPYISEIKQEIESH",
  "experiment": "scintillation proximity methyltransferase assay, 3H-methyl incorporation into p53 peptide ([…]), single […] dose",
  "format": "biochemical",
  "data": [
    {"smiles": "C/C=C(/C=O)[C@@H](CC=O)CC(=O)OCCc1ccc(O)cc1", "note": "[OC, S-(-)-oleocanthal]", "values": [
      {"measurement": "inhibition at 10 µM", "result": 90.8, "unit": "%"}
    ]}
  ]
}
